From patent publication US9902728B2, “Pyrrolo and pyrazolopyrimidines as ubiquitin-specific protease 7 inhibitors” (Forma Therapeutics, Inc., priority 2014, dated 2018) come the findings set out here.

T1 sequence (Q93009 208-1102): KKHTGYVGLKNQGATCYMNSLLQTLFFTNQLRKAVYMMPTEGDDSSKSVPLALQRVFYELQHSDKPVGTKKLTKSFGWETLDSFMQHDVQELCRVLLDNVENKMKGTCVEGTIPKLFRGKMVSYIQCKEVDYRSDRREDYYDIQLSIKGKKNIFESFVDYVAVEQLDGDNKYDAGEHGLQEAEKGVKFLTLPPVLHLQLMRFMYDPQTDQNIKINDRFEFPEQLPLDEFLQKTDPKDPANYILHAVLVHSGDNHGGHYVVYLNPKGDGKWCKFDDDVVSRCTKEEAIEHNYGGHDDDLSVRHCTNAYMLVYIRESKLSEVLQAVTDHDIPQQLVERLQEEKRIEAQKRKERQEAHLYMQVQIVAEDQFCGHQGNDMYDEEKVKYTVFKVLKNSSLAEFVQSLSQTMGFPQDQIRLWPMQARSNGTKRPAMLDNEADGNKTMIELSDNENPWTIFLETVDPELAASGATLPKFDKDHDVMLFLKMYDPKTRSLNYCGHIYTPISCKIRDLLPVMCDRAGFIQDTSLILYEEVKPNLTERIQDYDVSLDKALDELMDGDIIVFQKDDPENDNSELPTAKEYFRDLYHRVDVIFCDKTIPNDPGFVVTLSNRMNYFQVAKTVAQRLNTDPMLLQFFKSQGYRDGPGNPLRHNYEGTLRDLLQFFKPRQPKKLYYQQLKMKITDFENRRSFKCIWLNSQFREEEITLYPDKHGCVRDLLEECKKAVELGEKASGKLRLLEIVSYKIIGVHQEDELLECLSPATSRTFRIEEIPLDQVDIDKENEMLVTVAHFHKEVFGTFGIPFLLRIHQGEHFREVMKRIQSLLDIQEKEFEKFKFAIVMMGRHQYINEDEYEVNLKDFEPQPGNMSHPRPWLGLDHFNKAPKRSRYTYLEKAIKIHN

One assay addresses T1, USP7 (Homo sapiens, UniProt Q93009).
T1 construct: USP7, construct USP7 (208-1102) 6*His, Viva Biotech; 6xHis (C); purchased Viva Biotech
In words: USP7 Assay A (Ubitquin-Rhodamine 110 Assay). In kind it is biochemical. As to conditions: USP7_IC50, USP7 activity in USP7 assay A and B (table does not say which assay per compound). The essentials:
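Ub-Rh110 cleavage in 20 mM Tris-HCl pH 8.0 with 1 mM GSH, 0.03% BGG, 0.01% Triton X-100; compound preincubated with enzyme 30 min before substrate.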
Compound `CN1C2CCC1CN(c1cccc(-n3ncc4c(=O)n(CC5(O)CCN(C(=O)C6(C)CC6)CC5)cnc43)c1)C2` [Compound I-1644] had an IC50 of less than 0.2 µM.

Consider `CC1(C(=O)N2CCC(O)(Cn3cnc4c(cnn4-c4cccc(N5CC6CC(C5)O6)c4)c3=O)CC2)CC1` [Compound I-1692], for which the IC50 was less than 0.2 µM.

Still in this assay, the particulars now being: USP7 activity in USP7 assay A and B (table does not say which assay per compound); read-out: USP7_IC50.
As to `CC1(C(=O)N2CCC(O)(Cn3cnc4c(cnn4-c4ccc(N5CC(N6CCOCC6)C5)cc4)c3=O)CC2)CC1` [Compound I-1636], the IC50 lay in the range of 0.2 to 1 µM.

Consider `CC1(C(=O)N2CCC(O)(Cn3cnc4c(cnn4-c4cccc(N5CC(N6CCOCC6)C5)c4)c3=O)CC2)CC1` [Compound I-1637], for which the IC50 was in the range of 0.2 to 1 µM.

Take `C[C@@H]1CN(c2ccc(-n3ncc4c(=O)n(CC5(O)CCN(C(=O)C6(C)CC6)CC5)cnc43)cc2)C[C@H](C)N1C` [Compound I-1638]: the IC50 is less than 0.2 µM.

Consider `C[C@H]1CN(c2ccc(-n3ncc4c(=O)n(CC5(O)CCN(C(=O)C6(C)CC6)CC5)cnc43)cc2)CCN1C` [Compound I-1639], for which the IC50 was less than 0.2 µM.

Consider `C[C@@H]1CN(c2ccc(-n3ncc4c(=O)n(CC5(O)CCN(C(=O)C6(C)CC6)CC5)cnc43)cc2)CCN1C` [Compound I-1640], for which the IC50 was less than 0.2 µM.

As for `CN1CCN(c2ccc(-n3ncc4c(=O)n(CC5(O)CCN(C(=O)C6(C)CC6)CC5)cnc43)cc2)CC1` [Compound I-1641], the IC50 is less than 0.2 µM.

Regarding `CC1(C(=O)N2CCC(O)(Cn3cnc4c(cnn4-c4ccc(N5CCC(C6COC6)CC5)cc4)c3=O)CC2)CC1` [Compound I-1642], the IC50 fell in the range of 0.2 to 1 µM.

For the compound `CC1(C(=O)N2CCC(O)(Cn3cnc4c(cnn4-c4ccc(N5CC6CC(C5)O6)cc4)c3=O)CC2)CC1` [Compound I-1643], the IC50 was in the range of 0.2 to 1 µM.

For `CC1CN(c2cccc(-n3ncc4c(=O)n(CC5(O)CCN(C(=O)C6(C)CC6)CC5)cnc43)c2)CC(C)N1C` (stereo not shown) [Compound I-1645], the IC50 was less than 0.2 µM.

As for `C[C@H]1CN(c2cccc(-n3ncc4c(=O)n(CC5(O)CCN(C(=O)C6(C)CC6)CC5)cnc43)c2)CCN1C` [Compound I-1646], the IC50 was less than 0.2 µM.

Consider `O=C(c1ccc(F)cc1)N1CCC(O)(Cn2cnc3c(cnn3-c3ccc(N4CCCn5nccc54)cc3)c2=O)CC1` [Compound I-1654], for which the IC50 fell in the range of 0.2 to 1 µM.

For the compound `O=C(C1CC1)N1CCC(O)(Cn2cnc3c(cnn3-c3ccc(N4CCC(O)C4)cc3)c2=O)CC1` (stereo not shown) [Compound I-1655], the IC50 was 1 to 10 µM.

In the case of `CC1(O)CCN(c2ccc(-n3ncc4c(=O)n(CC5(O)CCN(C(=O)C6CC6)CC5)cnc43)cc2)C1` (stereo not shown) [Compound I-1657], the IC50 was in the range of 1 to 10 µM.

For `Cn1cc(-c2ccc(-n3ncc4c(=O)n(CC5(O)CCN(C(=O)c6ccc(F)cc6)CC5)cnc43)cc2)cn1` [Compound I-1672], the IC50 was in the range of 1 to 10 µM.

Regarding `O=C(C1CC1)N1CCC(O)(Cn2cnc3c(cnn3-c3ccc(-c4cnn5c4COCC5)cc3)c2=O)CC1` [Compound I-1673], the IC50 is 1 to 10 µM.

In the case of `CC1(C(=O)N2CCC(O)(Cn3cnc4c(cnn4-c4ccc(N5CC(C(C)(C)O)C5)cc4)c3=O)CC2)CC1` [Compound I-1674], the IC50 is 0.2 to 1 µM.

`CC1(C(=O)N2CCC(O)(Cn3cnc4c(cnn4-c4cccc(N5CCC(F)(F)CC5)c4)c3=O)CC2)CC1` [Compound I-1675]: the IC50 was less than 0.2 µM.

Regarding `CC1(C(=O)N2CCC(O)(Cn3cnc4c(cnn4-c4cccc(N5CC(C(C)(C)O)C5)c4)c3=O)CC2)CC1` [Compound I-1676], the IC50 is less than 0.2 µM.

Turning to `CC1(C(=O)N2CCC(O)(Cn3cnc4c(cnn4-c4ccc(N5CC(O)C5)cc4)c3=O)CC2)CC1` [Compound I-1677], the IC50 fell in the range of 0.2 to 1 µM.

Regarding `CC1(C(=O)N2CCC(O)(Cn3cnc4c(cnn4-c4cccc(N5CC(O)C5)c4)c3=O)CC2)CC1` [Compound I-1678], the IC50 lay within 0.2 to 1 µM.

On to `CC1(C(=O)N2CCC(O)(Cn3cnc4c(cnn4-c4ccc(N5CC(F)C5)cc4)c3=O)CC2)CC1` [Compound I-1679], for which the IC50 fell in the range of 0.2 to 1 µM.

With `CC1(C(=O)N2CCC(O)(Cn3cnc4c(cnn4-c4cccc(N5CC(F)C5)c4)c3=O)CC2)CC1` [Compound I-1680], the IC50 was 0.2 to 1 µM.

Take `CN1CC2CCC(C1)N2c1ccc(C(=O)N2CCC(O)(Cn3cnc4c(cnn4-c4ccc(F)cc4)c3=O)CC2)cc1` [Compound I-1681]: the IC50 was in the range of 1 to 10 µM.

Turning to `O=C(c1ccc(N2CCN3CCC2CC3)cc1)N1CCC(O)(Cn2cnc3c(cnn3-c3ccc(F)cc3)c2=O)CC1` [Compound I-1682], the IC50 fell in the range of 1 to 10 µM.

Consider `O=C(c1ccc(N2CCCN3CCCC3C2)cc1)N1CCC(O)(Cn2cnc3c(cnn3-c3ccc(F)cc3)c2=O)CC1` (stereo not shown) [Compound I-1683], for which the IC50 was 1 to 10 µM.

On to `O=C(c1cnc(C2CC2)o1)N1CCC(O)(Cn2cnc3c(cnn3-c3ccc(-n4cc(CO)cn4)cc3)c2=O)CC1` [Compound I-1684], for which the IC50 was less than 0.2 µM.

Take `O=C(c1cnc(C2CC2)o1)N1CCC(O)(Cn2cnc3c(cnn3-c3ccc(-n4cc(C(F)(F)F)cn4)cc3)c2=O)CC1` [Compound I-1685]: the IC50 is less than 0.2 µM.

In the case of `O=C(c1cnc(C2CC2)o1)N1CCC(O)(Cn2cnc3c(cnn3-c3ccc(-n4cc(Cl)cn4)cc3)c2=O)CC1` [Compound I-1686], the IC50 is less than 0.2 µM.

On to `Cc1ncc(C(=O)N2CCC(O)(Cn3cnc4c(cnn4-c4ccc(-n5cc(CO)cn5)cc4)c3=O)CC2)o1` [Compound I-1687], for which the IC50 is less than 0.2 µM.

As for `Cc1ncc(C(=O)N2CCC(O)(Cn3cnc4c(cnn4-c4ccc(-n5cc(C(F)(F)F)cn5)cc4)c3=O)CC2)o1` [Compound I-1688], the IC50 is less than 0.2 µM.

In the case of `C[C@@H]1CN(c2cccc(-n3ncc4c(=O)n(CC5(O)CCN(C(=O)C6(C)CC6)CC5)cnc43)c2)CCN1C` [Compound I-1689], the IC50 was less than 0.2 µM.

With `CN1CCN(c2cccc(-n3ncc4c(=O)n(CC5(O)CCN(C(=O)C6(C)CC6)CC5)cnc43)c2)CC1` [Compound I-1690], the IC50 is less than 0.2 µM.

On to `CC1(C(=O)N2CCC(O)(Cn3cnc4c(cnn4-c4cccc(N5CCC(C6COC6)CC5)c4)c3=O)CC2)CC1` [Compound I-1691], for which the IC50 is 0.2 to 1 µM.

On to `CN1CCN(c2ccc(-n3ncc4c(=O)n(CC5(O)CCN(C(=O)C6(C)CC6)CC5)cnc43)cc2)CC1C(F)F` (stereo not shown) [Compound I-1693], for which the IC50 lay in the range of 0.2 to 1 µM.

Take `CN1CCN(c2cccc(-n3ncc4c(=O)n(CC5(O)CCN(C(=O)C6(C)CC6)CC5)cnc43)c2)CC1C(F)F` (stereo not shown) [Compound I-1694]: the IC50 was less than 0.2 µM.

As to `CC1(C(=O)N2CCC(O)(Cn3cnc4c(cnn4-c4cccc(N5CCN(C6COC6)CC5)c4)c3=O)CC2)CC1` [Compound I-1700], the IC50 lay within 0.2 to 1 µM.

With `CC1(C(=O)N2CCC(O)(Cn3cnc4c(cnn4-c4ccc(N5CCN(C6COC6)CC5)cc4)c3=O)CC2)CC1` [Compound I-1701], the IC50 fell in the range of 0.2 to 1 µM.

`CC(=O)N1C[C@@H]2C[C@H]1CN2c1cccc(-n2ncc3c(=O)n(CC4(O)CCN(C(=O)C5(C)CC5)CC4)cnc32)c1` [Compound I-1702]: the IC50 was in the range of 0.2 to 1 µM.

For `Cc1ccn(-c2ccc(-n3ncc4c(=O)n(CC5(O)CCN(C(=O)C6(C)CC6)CC5)cnc43)cc2)n1` [Compound I-1710], the IC50 lay within 0.2 to 1 µM.

In the case of `Cc1ccn(-c2ccc(-n3ncc4c(=O)n(CC5(O)CCN(C(=O)C6(C)COC6)CC5)cnc43)cc2)n1` [Compound I-1711], the IC50 was in the range of 1 to 10 µM.

`CC1(C(=O)N2CCC(O)(Cn3cnc4c(cnn4-c4ccc(N5CCC6(CC5)COC6)cc4)c3=O)CC2)CC1` [Compound I-1716]: the IC50 was less than 0.2 µM.

In the case of `CC1(C(=O)N2CCC(O)(Cn3cnc4c(cnn4-c4ccc(-n5cc(C(F)(F)F)cn5)cc4)c3=O)CC2)CCC1` [Compound I-1717], the IC50 is less than 0.2 µM.

Consider `CC1(C(=O)N2CCC(O)(Cn3cnc4c(cnn4-c4ccc(N5CCC6(CC5)CC(F)(F)C6)cc4)c3=O)CC2)CCC1` [Compound I-1718], for which the IC50 was less than 0.2 µM.

As to `CC1(C(=O)N2CCC(O)(Cn3cnc4c(cnn4-c4ccc(-c5cnn(C6CCOCC6)c5)cc4)c3=O)CC2)CCC1` [Compound I-1719], the IC50 is less than 0.2 µM.

Regarding `CC1(C(=O)N2CCC(O)(Cn3cnc4c(cnn4-c4ccc(-c5cnn(C6CC6)c5)cc4)c3=O)CC2)CCC1` [Compound I-1720], the IC50 is less than 0.2 µM.

For the compound `CC1(C(=O)N2CCC(O)(Cn3cnc4c(cnn4-c4ccc(-c5cnn(C(F)F)c5)cc4)c3=O)CC2)CCC1` [Compound I-1721], the IC50 was less than 0.2 µM.

For `CC1(C(=O)N2CCC(O)(Cn3cnc4c(cnn4-c4ccc(-c5cnn(C6CCOCC6)c5)cc4)c3=O)CC2)CC1` [Compound I-1722], the IC50 was less than 0.2 µM.

For the compound `CC1(C(=O)N2CCC(O)(Cn3cnc4c(cnn4-c4ccc(-c5cnn(C6CC6)c5)cc4)c3=O)CC2)CC1` [Compound I-1723], the IC50 was 0.2 to 1 µM.

As to `Cc1ccnc(-c2ccc(-n3ncc4c(=O)n(CC5(O)CCN(C(=O)C6CC6)CC5)cnc43)cc2)c1` [Compound I-1725], the IC50 was 1 to 10 µM.

`Cc1ccc(-c2ccc(-n3ncc4c(=O)n(CC5(O)CCN(C(=O)C6CC6)CC5)cnc43)cc2)nc1` [Compound I-1726]: the IC50 lay in the range of 0.2 to 1 µM.

`O=C(C1CC1)N1CCC(O)(Cn2cnc3c(cnn3-c3ccc(N4CCCc5ncccc54)cc3)c2=O)CC1` [Compound I-1727]: the IC50 fell in the range of 1 to 10 µM.

Consider `CC1(C(=O)N2CCC(O)(Cn3cnc4c(cnn4-c4ccc(N5CCC(F)(F)CC5)cc4)c3=O)CC2)CC1` [Compound I-1728], for which the IC50 fell in the range of 0.2 to 1 µM.

Staying with this assay, now noted: USP7 assay A and B (table does not say which assay per compound); read-out: USP7_IC50.
For `O=C(c1cnc(C2CC2)o1)N1CCC(O)(Cn2cnc3c(cnn3-c3ccc(-c4ccccc4)cc3)c2=O)CC1` [Compound I-1659], the IC50 was 0.2 to 1 µM.

Turning to `CN(C)C(=O)N1CCC(O)(Cn2cnc3c(cnn3-c3cccc(-n4cc(Cl)cn4)c3)c2=O)CC1` [Compound I-1666], the IC50 was greater than 10 µM.

As for `O=C(C1CC1)N1CCC(O)(Cn2cnc3c(cnn3-c3ccc(OC4CCOCC4)cc3)c2=O)CC1` [Compound I-1667], the IC50 lay in the range of 1 to 10 µM.

For the compound `O=C(Nc1cccnc1)N1CCC(O)(Cn2cnc3c(cnn3-c3ccc(F)cc3)c2=O)CC1` [Compound I-1708], the IC50 was in the range of 1 to 10 µM.
